Where “and” joins values, the source holds several entries; their conditions need not be identical. Equal values may be shown once.
test system: patients with acne; experiment: Comparative clinical study among patients with acne; assay type: in vivo, human; settings: Treatment A (first treatment, retinoids without ivermectin); scale from 0 to 5; one acne patient per line; duration varies per patient
Method: A comparative study was carried out among patients with acne. […] These same patients then received a second treatment (Treatment B) containing ivermectin and were followed over several months.
By way of example, mention may be made of: Differin 0.3%®, Epiduo®, Metrogel® and Epiduo Forte® marketed by Galderma Laboratories, Accutane® from Roche Laboratories, and Ziana® from Medicis Pharmaceutical Corp.

Row | Compound | Satisfaction score
1 | CC1=C(/C=C/C(C)=C/C=C/C(C)=C/CO)C(C)(C)CCC1 [retinol 0.05%, retinol] | 0
2 | COc1ccc(-c2ccc3cc(C(=O)O)ccc3c2)cc1C12CC3CC(CC(C3)C1)C2 [adapalene 0.3%, 6-[3-(1-adamantyl)-4-methoxyphenyl]-2-naphthoic acid] | 1 and 0
3 | CC1=C(/C=C/C(C)=C/C=C/C(C)=C/C(=O)O)C(C)(C)CCC1 [tretinoin 0.05%, tretinoin] | 0
